Counter-ions that a name gives are not always drawn.
What was measured:
Neisseria menigitidis = conditions: gram negative cocci; cited from earlier work
Mycoplasma pneumoniae = conditions: mycoplasmae; cited from earlier work
Diplococcus pneumoniae = conditions: gram positive cocci; cited from earlier work
clinical = conditions: human, in vivo
Neisseria gonorrhoeae = conditions: gram negative cocci; cited from earlier work
Bacteroides fragilis = conditions: gram negative bacilli; cited from earlier work
Str. non-groupable = conditions: gram positive cocci; cited from earlier work
Str. pyogenes = conditions: gram positive cocci; cited from earlier work
Erysipelothrix insidiosa = conditions: gram positive bacilli; cited from earlier work
Listeria monocytogenes = conditions: gram positive bacilli; cited from earlier work
Plectridium tetani = conditions: gram positive bacilli; cited from earlier work
Clostridium perfringens = conditions: gram positive bacilli; cited from earlier work
Haemophilus influenzae = conditions: gram negative bacilli; cited from earlier work
Staph. epidermidis = conditions: gram positive cocci; cited from earlier work
Brucella melitensis = conditions: gram negative bacilli; cited from earlier work
[1] = system: Corynebacterium diphteriae; conditions: gram positive bacilli; cited from earlier work
Staph. aureus = conditions: gram positive cocci; cited from earlier work
Bordetella pertussis = conditions: gram negative bacilli; cited from earlier work
Pasteurella multocida = conditions: gram negative bacilli; cited from earlier work
Str. faecalis = conditions: gram positive cocci; cited from earlier work
[2] = human, in vivo, 2 h
[3] = in some patients, after prolonged treatment; cited from earlier work
[4] = serum concentration of erythromycin two hours after ethyl-succinyl erythromycin; assay type: in vivo, human (ill persons)
[5] = Serum concentration of erythromycine, Average

CC[C@H]1OC(=O)[C@H](C)[C@@H](O[C@H]2C[C@@](C)(OC)[C@@H](O)[C@H](C)O2)[C@H](C)[C@@H](O[C@@H]2O[C@H](C)C[C@H](N(C)C)[C@H]2O)[C@](C)(O)C[C@@H](C)C(=O)[C@H](C)[C@@H](O)[C@]1(C)O [E, erythromycin]
MINIMUM INHIBITING CONCENTRATIONS (Neisseria menigitidis): 0.2-1.6 […] MILILITER OF MEDIUM | MINIMUM INHIBITING CONCENTRATIONS (Mycoplasma pneumoniae): 0.004-0.016 […] MILILITER OF MEDIUM | MINIMUM INHIBITING CONCENTRATIONS (Diplococcus pneumoniae): 0.01-0.2 […] MILILITER OF MEDIUM | Cmax (clinical; Maximum concentrations of erythromycin, Average m): 996 ng/mL | concentration at 1 h (clinical; [5]): 321 ng/mL | concentration at 1.5 h (clinical; [5]): 610 ng/mL | concentration at 2 h (clinical; [5]): 988 ng/mL | MINIMUM INHIBITING CONCENTRATIONS (Neisseria gonorrhoeae): 0.04-0.4 […] MILILITER OF MEDIUM | MINIMUM INHIBITING CONCENTRATIONS (Bacteroides fragilis): 0.8-6.2 […] MILILITER OF MEDIUM | MINIMUM INHIBITING CONCENTRATIONS (Str. non-groupable): 0.02-3.1 […] MILILITER OF MEDIUM | MINIMUM INHIBITING CONCENTRATIONS (Str. pyogenes): 0.02-0.2 […] MILILITER OF MEDIUM | MINIMUM INHIBITING CONCENTRATIONS (Erysipelothrix insidiosa): 0.06 […] MILILITER OF MEDIUM | MINIMUM INHIBITING CONCENTRATIONS (Listeria monocytogenes): 0.2 […] MILILITER OF MEDIUM | MINIMUM INHIBITING CONCENTRATIONS (Plectridium tetani): 0.2-0.6 […] MILILITER OF MEDIUM | MINIMUM INHIBITING CONCENTRATIONS (Clostridium perfringens): 0.1-0.2 […] MILILITER OF MEDIUM | MINIMUM INHIBITING CONCENTRATIONS (Haemophilus influenzae): 0.4-3.1 […] MILILITER OF MEDIUM | MINIMUM INHIBITING CONCENTRATIONS (Staph. epidermidis): 0.2-3.1 […] MILILITER OF MEDIUM | MINIMUM INHIBITING CONCENTRATIONS (Brucella melitensis): 0.3 […] MILILITER OF MEDIUM | MINIMUM INHIBITING CONCENTRATIONS [1]: 0.2-3.1 […] MILILITER OF MEDIUM | MINIMUM INHIBITING CONCENTRATIONS (Staph. aureus): 0.01-1.6 […] MILILITER OF MEDIUM | MINIMUM INHIBITING CONCENTRATIONS (Bordetella pertussis): 0.2 […] MILILITER OF MEDIUM | MINIMUM INHIBITING CONCENTRATIONS (Pasteurella multocida): 0.8 […] MILILITER OF MEDIUM | MINIMUM INHIBITING CONCENTRATIONS (Str. faecalis): 0.6-3.1 […] MILILITER OF MEDIUM | Serum concentration of erythromycine, Average [2]: 988 ng/mL

CCC(=O)O[C@H]1[C@H](O[C@@H]2[C@@H](C)[C@H](O[C@H]3C[C@@](C)(OC)[C@@H](O)[C@H](C)O3)[C@@H](C)C(=O)O[C@H](CC)[C@@](C)(O)[C@H](O)[C@@H](C)C(=O)[C@H](C)C[C@@]2(C)O)O[C@H](C)C[C@@H]1N(C)C [estolate, lauryl sulfate of the propionic ester of erythromycin]
hepatotoxicity [3]: not inconsiderable hepatotoxicity

CCOC(=O)CCC(=O)O[C@H]1[C@H](O[C@@H]2[C@@H](C)[C@H](O[C@H]3C[C@@](C)(OC)[C@@H](O)[C@H](C)O3)[C@@H](C)C(=O)O[C@H](CC)[C@@](C)(O)[C@H](O)[C@@H](C)C(=O)[C@H](C)C[C@@]2(C)O)O[C@H](C)C[C@@H]1N(C)C [ES, ethyl-succinyl erythromycin]
regularity of the serum concentrations obtained ([4]; two hours following administration): irregularity in the serum concentrations obtained | Serum concentration of erythromycin, Total ([4]; two hours following administration of 600 mg, sum over 9 persons): 15360 ng/mL

Reference: patent US4176180A (priority 1977, dated 1979)
